Each block holds one compound with its values, some of them ahead of it.
Assays:
Type in all cases: in vivo
[1] = system: Matricaria inodora (MATIN); test: C. Herbicidal pre-emergence efficacy, MATIN; conditions: scored after about 3 weeks
Description: (§1) Seeds of monocotyledonous and dicotyledonous weed plants and crop plants were placed in plastic or organic planting pots and covered with soil. The compounds of the invention, formulated in the form of wettable powders (WP) or as emulsion concentrates (EC), were then applied to the surface of the covering soil as aqueous suspension or emulsion with addition of 0.5% additive at a water application rate equivalent to 600 l/ha (converted). After the treatment, the pots were placed in a greenhouse and kept under good growth conditions for the test plants. After about 3 weeks, the efficacy of the preparations was scored visually in comparison with untreated controls as percentages. For example, • 100% efficacy=plants have died, • 0% efficacy=like untreated control plants.
Tables C1a to C14b below show the effects of selected compounds of the general formula (I) according to table 1 on various harmful plants at an application rate corresponding to 320 g/ha or less, which were obtained by the experimental procedure mentioned above.

[2] = system: Oryza sativa (ORYSA); test: F. Post-emergence effect on useful plants, ORYSA; conditions: useful plant
Description: (§2) Seeds of monocotyledonous and dicotyledonous weeds and crop plants were placed in sandy loam in plastic or organic planting pots, covered with soil and cultivated in a greenhouse under controlled growth conditions. 2 to 3 weeks after sowing, the test plants were treated at the one-leaf stage. The compounds of the invention, formulated in the form of wettable powders (WP) or as emulsion concentrates (EC), were then sprayed onto the green parts of the plants as aqueous suspension or emulsion with addition of 0.5% additive at a water application rate of 600 l/ha (converted). After the test plants had been kept in the greenhouse under optimum growth conditions for about 3 weeks, the activity of the preparations was rated visually in comparison to untreated controls.
(§3) For example, • 100% efficacy=plants have died, • 0% action=like untreated control plants.
(§4) Tables F1a to F4 below show the effects of selected compounds of the general formula (I) according to table 1 on various useful plants at an application rate corresponding to 320 g/ha or less, which were obtained by the experimental procedure mentioned above.

[3] = system: Zea mays (ZEAMX); test: D. Pre-emergence effect on useful plants, ZEAMX; conditions: useful plant
Outline: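 Seeds sown in pots and covered with soil; WP or EC formulations sprayed on the soil surface as aqueous suspension/emulsion with 0.5% additive at 600 l/ha water. Plants grown in greenhouse; crop damage scored visually after about 3 weeks as % versus untreated controls (100% = dead, 0% = like control).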

[4] = system: Matricaria inodora (MATIN); test: B. Herbicidal post-emergence efficacy, MATIN
Description: Seeds of mono- and dicotyledonous weed plants were placed in plastic pots in sandy loam soil (doubly sown with in each case one species of mono- or dicotyledonous weed plants per pot), covered with soil and cultivated in a greenhouse under controlled growth conditions. 2 to 3 weeks after sowing, the test plants were treated at the one-leaf stage. The compounds of the invention, formulated in the form of wettable powders (WP) or as emulsion concentrates (EC), were applied onto the green parts of the plants as aqueous suspension or emulsion with addition of 0.5% additive at a water application rate of 600 liters per hectare (converted). After the test plants had been kept in the greenhouse under optimum growth conditions for about 3 weeks, the activity of the preparations was rated visually in comparison to untreated controls.
For example, • 100% efficacy=plants have died, • 0% efficacy=like untreated control plants
Tables B1a to B12c below show the effects of selected inventive compounds of the general formula (I) according to table 1 on various harmful plants at an application rate corresponding to 1280 g/ha or less, which were obtained by the experimental procedure mentioned above.

[5] = system: Oryza sativa (ORYSA); test: D. Pre-emergence effect on useful plants, ORYSA; conditions: useful plant
Description: as §1
(§5) Tables D1a to D5b below show the effects of selected compounds of the general formula (I) according to table 1 on various useful plants at an application rate corresponding to 320 g/ha or less, which were obtained by the experimental procedure mentioned above.

[6] = system: Lolium rigidum (LOLRI); test: E. Herbicidal post-emergence efficacy, LOLRI
Description: as §2, §3
Tables E1a to E12b below show the effects of selected compounds of the general formula (I) according to table 1 on various harmful plants at an application rate corresponding to 320 g/ha or less, which were obtained by the experimental procedure mentioned above.

[7] = system: Glycine max (GLXMA); test: D. Pre-emergence effect on useful plants, GLXMA; conditions: useful plant
Description: as §1, §5

[8] = system: Glycine max (GLXMA); test: F. Post-emergence effect on useful plants, GLXMA; conditions: useful plant, application rate 80 g/ha
Description: as §2, §3, §4

[9] = system: Brassica napus (BRSNW); test: D. Pre-emergence effect on useful plants, BRSNW; conditions: useful plant
Description: as §1, §5

- Post-emergence efficacy against ORYSA in % ([2]; application rate 80 g/ha): 0%
- Pre-emergence efficacy against ZEAMX in % ([3]; application rate 80 g/ha): 0%
Compound: O=S(=O)(CC1CC1)Oc1ccccc1Oc1ncc(Cl)cn1 [Example I-23]
- Pre-emergence efficacy against MATIN ([1]; 320 g/ha): 100%

- Pre-emergence efficacy against ZEAMX in % ([3]; application rate 80 g/ha): 0%
Compound: C=CCCS(=O)(=O)Oc1c(F)cccc1Oc1ncc(Cl)cn1 [Example I-50]
- Post-emergence efficacy against MATIN ([4]; 1280 g/ha): 90%

- Pre-emergence efficacy against ORYSA in % ([5]; application rate 80 g/ha): 20%
- Post-emergence efficacy against ORYSA in % ([2]; application rate 80 g/ha): 10%
Compound: CCCS(=O)(=O)Oc1ccccc1Oc1ncc(Cl)cn1 [Example I-3]
- Pre-emergence efficacy against MATIN ([1]; 320 g/ha): 90%

Compound: O=S(=O)(CCC(F)(F)F)Oc1c(F)cccc1Oc1ncc(F)cn1 [Example I-47]
- Pre-emergence efficacy against MATIN ([1]; 80 g/ha): 90%
- Pre-emergence efficacy against MATIN ([1]; 320 g/ha): 100%
- Post-emergence efficacy against LOLRI in % ([6]; application rate 320 g/ha): 100%

- Pre-emergence efficacy against GLXMA in % ([7]; application rate 80 g/ha): 0%
- Pre-emergence efficacy against ORYSA in % ([5]; application rate 80 g/ha): 0%
- Post-emergence efficacy against ORYSA in % ([2]; application rate 80 g/ha): 0%
- Pre-emergence efficacy against ZEAMX in % ([3]; application rate 80 g/ha): 0%
Compound: CC(C)CCS(=O)(=O)Oc1ccccc1Oc1ncc(Cl)cn1 [Example I-25]

Compound: O=S(=O)(CCCC(F)(F)F)Oc1c(Cl)cccc1Oc1ncc(Cl)cn1 [Example I-39]
- Pre-emergence efficacy against MATIN ([1]; 320 g/ha): 80%
- Pre-emergence efficacy against ZEAMX in % ([3]; application rate 80 g/ha): 0%

- Pre-emergence efficacy against ZEAMX in % ([3]; application rate 80 g/ha): 0%
Compound: Cc1cccc(Oc2ncc(Cl)cn2)c1OS(=O)(=O)CC1CC(F)(F)C1 [Example I-74]

- Pre-emergence efficacy against ZEAMX in % ([3]; application rate 80 g/ha): 0%
Compound: COCCS(=O)(=O)Oc1c(F)cccc1Oc1ncc(Cl)cn1 [Example I-52]

- Pre-emergence efficacy against ORYSA in % ([5]; application rate 80 g/ha): 0%
- Post-emergence efficacy against ORYSA in % ([2]; application rate 80 g/ha): 10%
- Post-emergence efficacy against ORYSA in % ([2]; application rate 320 g/ha): 10%
- Pre-emergence efficacy against ZEAMX in % ([3]; application rate 80 g/ha): 0%
- Pre-emergence efficacy against ZEAMX in % ([3]; application rate 320 g/ha): 20%
Compound: O=S(=O)(CCl)Oc1ccccc1Oc1ncc(Cl)cn1 [Example I-9]
- Pre-emergence efficacy against MATIN ([1]; 320 g/ha): 80%

Compound: O=S(=O)(CCCCl)Oc1cccc(F)c1Oc1ncc(Cl)cn1 [Example I-13]
- Pre-emergence efficacy against GLXMA in % ([7]; application rate 80 g/ha): 10%
- Pre-emergence efficacy against GLXMA in % ([7]; application rate 320 g/ha): 20%
- Pre-emergence efficacy against ORYSA in % ([5]; application rate 80 g/ha): 10%
- Post-emergence efficacy against ORYSA in % ([2]; application rate 80 g/ha): 10%
- Post-emergence efficacy against GLXMA in % [8]: 10%
- Pre-emergence efficacy against ZEAMX in % ([3]; application rate 80 g/ha): 10%
- Pre-emergence efficacy against ZEAMX in % ([3]; application rate 320 g/ha): 20%

Compound: N#Cc1cccc(Oc2ncc(Cl)cn2)c1OS(=O)(=O)CCCC(F)(F)F [Example I-81]
- Pre-emergence efficacy against GLXMA in % ([7]; application rate 80 g/ha): 0%
- Post-emergence efficacy against LOLRI in % ([6]; application rate 320 g/ha): 80%
- Pre-emergence efficacy against ZEAMX in % ([3]; application rate 80 g/ha): 0%

Compound: O=S(=O)(CCCC(F)(F)F)Oc1c(F)cccc1Oc1ncc(Cl)cn1 [Example I-49]
- Pre-emergence efficacy against MATIN ([1]; 80 g/ha): 80%
- Pre-emergence efficacy against MATIN ([1]; 320 g/ha): 100%
- Post-emergence efficacy against LOLRI in % ([6]; application rate 320 g/ha): 80%

Compound: O=S(=O)(CC1CC1(Cl)Cl)Oc1c(F)cccc1Oc1ncc(Cl)cn1 (stereo not drawn) [Example I-57]
- Post-emergence efficacy against MATIN ([4]; 320 g/ha): 90%
- Post-emergence efficacy against MATIN ([4]; 1280 g/ha): 90%

- Pre-emergence efficacy against ORYSA in % ([5]; application rate 80 g/ha): 0%
- Pre-emergence efficacy against ORYSA in % ([5]; application rate 320 g/ha): 20%
- Pre-emergence efficacy against BRSNW in % ([9]; application rate 80 g/ha): 0%
- Pre-emergence efficacy against BRSNW in % ([9]; application rate 320 g/ha): 0%
- Post-emergence efficacy against ORYSA in % ([2]; application rate 80 g/ha): 0%
- Post-emergence efficacy against ORYSA in % ([2]; application rate 320 g/ha): 0%
- Pre-emergence efficacy against ZEAMX in % ([3]; application rate 80 g/ha): 0%
- Pre-emergence efficacy against ZEAMX in % ([3]; application rate 320 g/ha): 0%
Compound: CCCCCS(=O)(=O)Oc1ccccc1Oc1ncc(Cl)cn1 [Example I-24]

Compound: O=S(=O)(CCCC(F)(F)F)Oc1c(F)cccc1Oc1ncc(F)cn1 [Example I-42]
- Pre-emergence efficacy against MATIN ([1]; 80 g/ha): 90%
- Pre-emergence efficacy against MATIN ([1]; 320 g/ha): 100%
- Post-emergence efficacy against LOLRI in % ([6]; application rate 80 g/ha): 80%
- Post-emergence efficacy against LOLRI in % ([6]; application rate 320 g/ha): 100%

- Pre-emergence efficacy against ZEAMX in % ([3]; application rate 80 g/ha): 0%
Compound: O=S(=O)(CCC(F)(F)F)Oc1c(F)cccc1Oc1ncc(Cl)cn1 [Example I-48]
- Pre-emergence efficacy against MATIN ([1]; 80 g/ha): 100%
- Pre-emergence efficacy against MATIN ([1]; 320 g/ha): 100%
- Post-emergence efficacy against LOLRI in % ([6]; application rate 320 g/ha): 90%

Compound: O=S(=O)(CCCC(F)(F)F)Oc1c(Cl)cccc1Oc1ncc(Br)cn1 [Example I-34]
- Pre-emergence efficacy against GLXMA in % ([7]; application rate 80 g/ha): 0%

Reference: patent publication US20240174618A1, “SUBSTITUTED (2-HETEROARYLOXYPHENYL)SULFONATES, SALTS THEREOF AND THEIR USE AS HERBICIDAL AGENTS” (Bayer Aktiengesellschaft, priority 2021, published 2024)
